ChEMBL document CHEMBL3804814, “Quinazolines and quinazolinones as ubiquitous structural fragments in medicinal chemistry: An update on the development of synthetic methods and pharmacological diversification” (Bioorg Med Chem, 2016)

Assays:
Mus musculus = species: Mus musculus; test: Anticonvulsant activity in mouse assessed as reduction in MES-induced seizures by maximal electroshock seizure test; type: functional
[1] = Protective index, ratio of neurotoxicity in mouse to anticonvulasnt activity for MES-induced seizure mouse model; type: toxicity, organism-based; settings: in vivo, read-out: PI
[2] = Anticancer activity against human HCT116 cells measured after 48 hrs by SRB assay; type: functional, cell-based; settings: hct-116
HepG2 [3] = test: Cytotoxicity against human HepG2 cells measured after 48 hrs by SRB assay; type: functional, cell-based
Cavia porcellus = species: Cavia porcellus; test: Antihistaminic activity in guinea pigs assessed as supression of histamine induced bronchospasm
HepG2 [4] = test: Potency index, ratio of doxorubicin IC50 to compound IC50 for anticancer activity against human HepG2 cells after 48 hrs by SRB assay; type: functional
[5] = target: Epidermal growth factor receptor (Homo sapiens) (UniProt P00533); test: Inhibition of EGFR-tyrosine kinase (unknown origin) at 10 uM measured after 2 hrs by kinase-glo plus luminescence kinase assay
Plasmodium berghei [6] = test: Antimalarial activity against chloroquine-sensitive Plasmodium berghei ANKA infected Swiss albino mouse assessed as suppression of parasitemia at 16.59 mg/kg administered for 4 consecutive days measured on 5th day by Giemsa staining based microscopic method; type: functional
Plasmodium berghei [7] = test: Antimalarial activity against chloroquine-sensitive Plasmodium berghei ANKA infected Swiss albino mouse assessed as mean survival time at 16.59 mg/kg administered for 4 consecutive days; type: functional
Thymidine phosphorylase = Thymidine phosphorylase (Escherichia coli K-12, UniProt P07650); test: Inhibition of recombinant Escherichia coli thymidine phosphorylase using thymidine as substrate measured after 10 mins at 30 degC by spectrophotometric method
[8] = Anticancer activity against human NCI lung cancer cell by MTT assay; type: functional, cell-based; settings: Cancer cell lines
[9] = target: T1, Cathepsin H (Capra hircus) (UniProt A0A060INS8); test: Inhibition of goat cathepsin H at 750 uM in presence of Leu-beta-NA after 30 mins by colorimetric method
T1 sequence (whole entry): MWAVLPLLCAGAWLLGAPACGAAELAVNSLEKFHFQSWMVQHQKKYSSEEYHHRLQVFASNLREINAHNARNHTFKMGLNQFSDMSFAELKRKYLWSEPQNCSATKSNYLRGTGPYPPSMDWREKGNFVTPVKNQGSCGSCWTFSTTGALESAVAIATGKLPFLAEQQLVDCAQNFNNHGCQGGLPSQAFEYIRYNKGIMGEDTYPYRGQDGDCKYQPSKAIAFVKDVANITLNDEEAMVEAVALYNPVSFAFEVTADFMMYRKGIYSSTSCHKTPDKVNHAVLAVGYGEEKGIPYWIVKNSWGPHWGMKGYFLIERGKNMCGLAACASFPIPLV

[10] = target: T1, Cathepsin H (Capra hircus); test: Inhibition of goat cathepsin H at 10 uM in presence of Leu-beta-NA after 30 mins by colorimetric method
[11] = target: Cathepsin B (Capra hircus) (UniProt H9B8T9); settings: 25 uM
Description: Inhibition of goat cathepsin B at 25 uM in presence of BANA after 30 mins by colorimetric method

[12] = target: Cathepsin B (Capra hircus) (UniProt H9B8T9); settings: 100 nM
Description: Inhibition of goat cathepsin B at 100 nM in presence of BANA after 30 mins by colorimetric method

Plasmodium berghei [13] = test: Antimalarial activity against chloroquine-sensitive Plasmodium berghei ANKA infected Swiss albino as mean survival time at 18.73 mg/kg administered for 4 consecutive days; type: functional
Plasmodium berghei [14] = test: Antimalarial activity against chloroquine-sensitive Plasmodium berghei ANKA infected Swiss albino mouse assessed as suppression of parasitemia at 18.73 mg/kg administered for 4 consecutive days measured on 5th day by Giemsa staining based microscopic method; type: functional
Plasmodium berghei [15] = test: Antimalarial activity against chloroquine-sensitive Plasmodium berghei ANKA infected Swiss albino mouse assessed as parasitemia at 18.73 mg/kg administered for 4 consecutive days measured on 5th day by Giemsa staining based microscopic method; type: functional
[16] = Anticancer activity against human HCT116 cells measured after 72 hrs by MTT assay; type: functional, cell-based; settings: HCT-116, 72 h
HT-29 = test: Anticancer activity against human HT-29 cells measured after 72 hrs by MTT assay; type: functional, cell-based; settings: HT-29, 72 h
[17] = Cytotoxicity against human lymphocytes measured after 72 hrs by MTT assay; type: cell-based; settings: Lymphocyte
[18] = target: Epidermal growth factor receptor (Homo sapiens) (UniProt P00533); test: Inhibition of EGFR-TK receptor (unknown origin); settings: concentration not given here

Chain of Epidermal growth factor receptor (Homo sapiens) (P00533 whole entry): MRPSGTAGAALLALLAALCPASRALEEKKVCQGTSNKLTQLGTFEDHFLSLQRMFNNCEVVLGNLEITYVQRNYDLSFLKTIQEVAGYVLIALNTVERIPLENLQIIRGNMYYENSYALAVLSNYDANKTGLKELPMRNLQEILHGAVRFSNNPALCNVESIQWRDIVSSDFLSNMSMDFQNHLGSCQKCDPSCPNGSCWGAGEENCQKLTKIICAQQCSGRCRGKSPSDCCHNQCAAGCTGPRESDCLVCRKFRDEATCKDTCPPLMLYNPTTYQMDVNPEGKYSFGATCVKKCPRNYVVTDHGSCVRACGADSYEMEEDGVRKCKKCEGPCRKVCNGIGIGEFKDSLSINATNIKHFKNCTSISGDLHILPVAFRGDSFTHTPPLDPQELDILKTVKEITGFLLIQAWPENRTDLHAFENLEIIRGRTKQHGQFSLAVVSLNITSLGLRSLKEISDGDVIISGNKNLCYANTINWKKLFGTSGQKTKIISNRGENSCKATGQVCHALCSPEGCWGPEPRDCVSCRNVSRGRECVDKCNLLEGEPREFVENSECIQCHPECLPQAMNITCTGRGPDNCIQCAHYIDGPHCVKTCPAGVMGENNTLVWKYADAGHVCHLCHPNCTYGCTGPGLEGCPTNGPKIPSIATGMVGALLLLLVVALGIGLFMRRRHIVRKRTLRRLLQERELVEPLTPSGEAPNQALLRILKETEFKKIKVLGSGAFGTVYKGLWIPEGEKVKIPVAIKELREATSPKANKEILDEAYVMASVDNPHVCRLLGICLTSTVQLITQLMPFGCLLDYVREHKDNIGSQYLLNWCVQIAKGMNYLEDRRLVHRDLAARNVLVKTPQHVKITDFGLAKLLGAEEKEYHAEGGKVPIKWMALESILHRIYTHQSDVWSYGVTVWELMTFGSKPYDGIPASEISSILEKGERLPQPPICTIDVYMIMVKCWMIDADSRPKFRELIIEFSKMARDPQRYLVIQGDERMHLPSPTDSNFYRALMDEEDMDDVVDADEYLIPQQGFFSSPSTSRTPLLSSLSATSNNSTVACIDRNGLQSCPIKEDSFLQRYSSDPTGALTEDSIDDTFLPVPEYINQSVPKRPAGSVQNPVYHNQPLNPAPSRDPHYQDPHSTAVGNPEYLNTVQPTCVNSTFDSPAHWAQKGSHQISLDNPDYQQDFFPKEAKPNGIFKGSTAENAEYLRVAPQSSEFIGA
Chain of Thymidine phosphorylase (P07650 whole entry): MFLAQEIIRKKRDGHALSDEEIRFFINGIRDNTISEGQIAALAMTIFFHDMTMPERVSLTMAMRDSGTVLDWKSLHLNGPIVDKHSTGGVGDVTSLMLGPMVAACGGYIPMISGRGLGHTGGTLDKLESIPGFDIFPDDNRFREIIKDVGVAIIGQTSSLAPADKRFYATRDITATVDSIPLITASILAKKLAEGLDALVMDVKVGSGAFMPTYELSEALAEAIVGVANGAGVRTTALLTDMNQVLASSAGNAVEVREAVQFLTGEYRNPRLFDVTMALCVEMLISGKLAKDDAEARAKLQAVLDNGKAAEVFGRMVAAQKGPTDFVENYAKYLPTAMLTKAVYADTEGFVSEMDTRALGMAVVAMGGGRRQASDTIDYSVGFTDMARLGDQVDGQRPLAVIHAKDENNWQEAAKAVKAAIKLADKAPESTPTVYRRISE

Question: Which results are given for O=c1c2ccccc2nc(-n2cncn2)n1-c1ccc(Cl)cc1?
Answer: ED50 (Mus musculus): 88 mg/kg; selectivity ratio [1]: > 25.5

Question: Which IC50 [2] does the source give for COc1cccc2c1C(=O)c1c(O)c3c(c(O)c1C2=O)C[C@@](O)(C(=O)CO)C[C@@H]3O[C@H]1C[C@H](N)[C@H](O)[C@H](C)O1 [DOXORUBICIN] here?
Answer: The IC50 was 4.8 µM.

Question: And the IC50 (HepG2 [3])?
Answer: Its IC50 is 5.7 µM.

Question: For O=c1c2ccccc2nc(-n2cncn2)n1-c1cccc(Br)c1, which ED50 (Mus musculus) is on record?
Answer: The ED50 was 94.6 mg/kg.

Question: And the selectivity ratio [1]?
Answer: The selectivity ratio was > 26.

Question: Which “inhibition (INH)” value (Cavia porcellus) does the source give for Cc1nnc2n(-c3cccc(Cl)c3)c(=O)c3ccccc3n12 here?
Answer: Its value is 69.65%.

Question: For N#CC1=C(N)OC(c2ccc(-n3c(-c4ccco4)nc4ccccc4c3=O)cc2)=CC1c1ccc(Cl)cc1 (configuration not stated), which “Ratio IC50” value (HepG2 [4]) is on record?
Answer: The value was 24.

Question: And the inhibition [5]?
Answer: Its inhibition is 95.6%.

Question: With O=c1c2ccccc2nc(/C=C/c2ccc(O)cc2)n1-c1ccccc1 as the compound, how does the inhibition in vivo at 16.59 mg/kg (Plasmodium berghei [6]) read?
Answer: Its inhibition in vivo at 16.59 mg/kg is 67.6%.

Question: What about the MST (Plasmodium berghei [7]) of the same compound?
Answer: Its MST is 8.3 days.

Question: Which IC50 (Thymidine phosphorylase) does the source give for O=c1[nH]c(-c2cc(O)ccc2O)nc2ccccc12 here?
Answer: Its IC50 is 59.5 µM.

Question: Which IC50 [8] does the source give for Cc1cc(C)nc(NS(=O)(=O)c2ccc(-n3c(C)nc4ccc(F)cc4c3=O)cc2)n1 here?
Answer: Its IC50 is 2.51 µM.

Question: Which inhibition [9] does the source give for O=C1NC(c2ccc(F)cc2)Nc2ccccc21 (configuration not stated) here?
Answer: The inhibition was 50%.

Question: And the inhibition [10]?
Answer: Its inhibition is 100%.

Question: Which IC50 [8] does the source give for CN(Cc1cnc2nc(N)nc(N)c2n1)c1ccc(C(=O)N[C@@H](CCC(=O)O)C(=O)O)cc1 [METHOTREXATE] here?
Answer: The IC50 was 2.4 µM.

Question: What does the source list for COc1ccc(-c2cc(-c3ccc(-n4c(-c5ccco5)nc5ccccc5c4=O)cc3)[nH]c(=N)c2C#N)cc1?
Answer: IC50 [2]: 0.2 µM; Ratio IC50 (HepG2 [4]): 4; IC50 (HepG2 [3]): 6.6 µM

Question: Which inhibition [11] does the source give for Cc1ccc(C2NC(=O)c3ccccc3N2)cc1 (configuration not stated) here?
Answer: The inhibition was 100%.

Question: What about the inhibition [12] of the same compound?
Answer: Its inhibition is 50%.

Question: Which results are given for COc1cc(/C=C/c2nc3ccccc3c(=O)n2-c2ccccc2C)ccc1O?
Answer: MST (Plasmodium berghei [13]): 9.2 days; inhibition in vivo at 18.73 mg/kg (Plasmodium berghei [14]): 72.9%; Activity (Plasmodium berghei [15]): 17.71%

Question: For O=c1[nH]c(-c2ccc(O)c(O)c2)nc2ccccc12, which IC50 (Thymidine phosphorylase) is on record?
Answer: The IC50 was 42.9 µM.

Question: Which “inhibition (INH)” value (Cavia porcellus) does the source give for CN(C)CCC(c1ccc(Cl)cc1)c1ccccn1.O=C(O)/C=C\C(=O)O (configuration not stated) [CHLORPHENIRAMINE MALEATE] here?
Answer: Its value is 70.09%.

Question: What does the source list for Cc1ccc(-c2cc(-c3ccc(-n4c(-c5ccco5)nc5ccccc5c4=O)cc3)[nH]c(=N)c2C#N)cc1?
Answer: IC50 [2]: 1.2 µM; IC50 (HepG2 [3]): 6.7 µM

Question: For O=c1c2cc(N3CCN(c4ccccc4F)CC3)ccc2ncn1Cc1ccccc1, which IC50 [16] is on record?
Answer: Its IC50 is 46 µM.

Question: What about the IC50 (HT-29) of the same compound?
Answer: Its IC50 is 50.9 µM.

Question: What about the IC50 [17] of the same compound?
Answer: Its IC50 is 197 µM.

Question: For O=C(/C=C/c1ccccc1)c1ccc(-n2c(-c3ccco3)nc3ccccc3c2=O)cc1, which inhibition [18] is on record?
Answer: The inhibition was 84%.
